Measured values published in patent publication US9555038B2, “Heterocycle-substituted tetracyclic compounds and methods of use thereof for the treatment of viral diseases” (Merck Sharp & Dohme Corp., priority 2013, dated 2017).
Where two headings read alike, the source gives them in different places.

Columns and labels:
HCV replicon 1B = test: Cell-based HCV Replicon Assay B, replicon 1B
Outline: (§1)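 Replicon cells seeded in 5% FBS; compounds added 24 h later, then 3 days' incubation. Replicon RNA quantified by real-time RT-PCR with genotype-specific primers/probes (NS5B amplicon for 1b). EC50 = concentration raising CT by 1 over projected baseline.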

HCV replicon 1AY93H = test: Cell-based HCV Replicon Assay A, replicon 1AY93H
Outline: (§2)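 Replicon cells seeded at 2000 cells/well with compound, 10 serial dilutions starting at 333.3 nM to 1.667 nM, 0.5% DMSO, 5% FBS, harvested on day 3. Replicon RNA measured by multiplex TaqMan RT-PCR with cyclophilin as endogenous control, quantified from standard curves of Ct vs log ng RNA.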

HCV replicon 2B = test: Cell-based HCV Replicon Assay A, replicon 2B
Outline: as §2

HCV replicon 1A = test: Cell-based HCV Replicon Assay A, replicon 1A
Outline: as §2

HCV replicon 1AQ30D = test: Cell-based HCV Replicon Assay B, replicon 1AQ30D
Outline: as §1

[1] = Hepatitis C virus, read-out: 1A Y93H IC50 (nM), replicon 1AY93H
[2] = Hepatitis C virus, read-out: 2B IC50 (nM), replicon 2B
[3] = Hepatitis C virus, read-out: 1A Q30D IC50 (nM), replicon 1AQ30D
[4] = read-out: 1A Y93H IC50, replicon 1AY93H
[5] = read-out: 1A Q30D IC50, replicon 1AQ30D
[6] = replicon 1AY93H, read-out: 1A Y93H IC50
[7] = replicon 1AQ30D, read-out: 1A Q30D IC50

| Structure (SMILES) | IC50 (HCV replicon 1B; Hepatitis C virus) | IC50 (HCV replicon 1AY93H; [1]) | IC50 (HCV replicon 2B; [2]) | IC50 (HCV replicon 1A; Hepatitis C virus) | IC50 (HCV replicon 1AQ30D; [3]) | IC50 (HCV replicon 1B) | IC50 (HCV replicon 1AY93H; [4]) | IC50 (HCV replicon 2B; read-out: 2B IC50, replicon 2B) | IC50 (HCV replicon 1A) | IC50 (HCV replicon 1AQ30D; [5]) | IC50 (HCV replicon 1AY93H; [6]) | IC50 (HCV replicon 2B; replicon 2B, read-out: 2B IC50) | IC50 (HCV replicon 1AQ30D; [7]) |
| --- | --- | --- | --- | --- | --- | --- | --- | --- | --- | --- | --- | --- | --- |
| COC(=O)N[C@H](C(=O)N1CCC[C@H]1c1ncc(-c2cc(C)c3c(c2)OC(c2cnc(C4CCC4)s2)n2c-3cc3cc(-c4cnc([C@@H]5C[C@H]6C[C@H]6N5C(=O)[C@@H](NC(=O)OC)C(C)(C)F)[nH]4)ccc32)[nH]1)C(C)C (single isomer, unassigned) [Compound 210] | 2 pM | 0.0163 nM | 0.006 nM | 4.9 pM | 0.216 nM | – | – | – | – | – | – | – | – |
| COC(=O)NC(C(=O)N1[C@@H]2C[C@@H]2C[C@H]1c1ncc(-c2ccc3c(c2)cc2n3C(c3cnc(C4(C)CC4)s3)Oc3cc(-c4cnc([C@@H]5CCCN5C(=O)[C@@H](NC(=O)OC)C(C)C)[nH]4)cc(F)c3-2)[nH]1)C1CCOC(C)(C)C1 (single isomer, unassigned) [Compound 466] | – | – | – | – | – | 3 pM | 0.002 nM | 0.005 nM | 2.7 pM | 0.015 nM | – | – | – |
| COC(=O)NC(C(=O)N1CCC[C@H]1c1ncc(-c2ccc3c(c2)cc2n3C(c3cnc(C4(C)CCCC4)s3)Oc3cc(-c4cnc([C@@H]5CCCN5C(=O)[C@@H](NC(=O)OC)C(C)C)[nH]4)cc(F)c3-2)[nH]1)C1CCOC(C)(C)C1 (single isomer, unassigned) [Compound 471] | – | – | – | – | – | 3.5 pM | 0.003 nM | 0.004 nM | 2.8 pM | 0.013 nM | – | – | – |
| COC(=O)N[C@H](C(=O)N1CCC[C@H]1c1ncc(-c2cc(F)c3c(c2)OC(c2cnc(CC(C)C)s2)n2c-3cc3cc(-c4cnc([C@@H]5CCCN5C(=O)[C@@H](NC(=O)OC)C(C)C)[nH]4)ccc32)[nH]1)C(C)C (single isomer, unassigned) [Compound 514] | – | – | – | – | – | 3 pM | – | – | 2.2 pM | – | 0.012 nM | 0.035 nM | 0.174 nM |
| CCC(CC)c1ncc(C2Oc3cc(-c4cnc([C@@H]5CCCN5C(=O)[C@@H](NC(=O)OC)C(C)C)[nH]4)cc(F)c3-c3cc4cc(-c5cnc([C@@H]6CCCN6C(=O)C(NC(=O)OC)C6CCOC(C)(C)C6)[nH]5)ccc4n32)s1 (single isomer, unassigned) [Compound 445] | – | – | – | – | – | 4.6 pM | 0.107 nM | 0.096 nM | 2.8 pM | 0.949 nM | – | – | – |
| COC(=O)N[C@H](C(=O)N1CCC[C@H]1c1ncc(-c2cc(F)c3c(c2)OC(c2cnc(C4CC4)s2)n2c-3cc3cc(-c4cnc([C@@H]5CC6(C)CC6N5C(=O)[C@@H](NC(=O)OC)C(C)C)[nH]4)ccc32)[nH]1)C(C)C (single isomer, unassigned) [Compound 519] | – | – | – | – | – | 2.1 pM | – | – | 3.1 pM | – | 0.669 nM | 0.598 nM | 0.951 nM |
| CCCc1ncc(C2Oc3cc(-c4cnc([C@@H]5CCCN5C(=O)[C@@H](NC(=O)OC)C(C)C)[nH]4)cc(F)c3-c3cc4cc(-c5cnc([C@@H]6CCCN6C(=O)[C@@H](NC(=O)OC)C(C)C)[nH]5)ccc4n32)s1 (some centres unmarked) [Compound 15] | – | – | – | 2.9 pM | 0.118 nM | 3 pM | 0.0059 nM | 0.025 nM | – | – | – | – | – |
| COC(=O)N[C@H](C(=O)N1CCC[C@H]1c1ncc(-c2cc(F)c3c(c2)OC(c2cnc(Nc4ccc(F)cc4)s2)n2c-3cc3cc(-c4cnc([C@@H]5CCCN5C(=O)[C@@H](NC(=O)OC)C(C)C)[nH]4)ccc32)[nH]1)C(C)C (single isomer, unassigned) [Compound 534] | 3 pM | 0.094 nM | – | 2.4 pM | 0.267 nM | – | – | 0.03 nM | – | – | – | – | – |
| COC(=O)NC(C(=O)N1CCC[C@H]1c1ncc(-c2ccc3c(c2)cc2n3C(c3cnc(C4(C)CC4)s3)Oc3cc(-c4cnc([C@@H]5CCCN5C(=O)[C@@H](NC(=O)OC)C(C)C)[nH]4)cc(F)c3-2)[nH]1)C1CCOC(C)(C)C1 (single isomer, unassigned) [Compound 458] | – | – | – | – | – | 3.5 pM | 0.007 nM | 0.007 nM | 3 pM | 0.024 nM | – | – | – |
| COC(=O)N[C@H](C(=O)N1CCC[C@H]1c1ncc(-c2cc(F)c3c(c2)OC(c2cnc(-c4ccc(OC)cc4)s2)n2c-3cc3cc(-c4cnc([C@@H]5CCCN5C(=O)[C@@H](NC(=O)OC)C(C)C)[nH]4)ccc32)[nH]1)C(C)C (single isomer, unassigned) [Compound 45] | 1 pM | – | – | 1.8 pM | 0.072 nM | – | 0.006 nM | 0.011 nM | – | – | – | – | – |
| COC(=O)N[C@H](C(=O)N1CCC[C@H]1c1ncc(-c2cc(F)c3c(c2)OC(c2cnc(C4(C)CCCC4)s2)n2c-3cc3cc(-c4cnc([C@@H]5C[C@H]6C[C@H]6N5C(=O)[C@@H](NC(=O)OC)C(C)C)[nH]4)ccc32)[nH]1)C(C)C (single isomer, unassigned) [Compound 454] | 3.1 pM | – | 0.052 nM | 2.3 pM | 0.047 nM | – | 0.002 nM | – | – | – | – | – | – |
| CCCc1ncc(C2Oc3cc(-c4cnc([C@@H]5CCCN5C(=O)[C@@H](NC(=O)OC)C(C)C)[nH]4)cc(F)c3-c3cc4cc(-c5cnc([C@@H]6C[C@H]7C[C@H]7N6C(=O)C(NC(=O)OC)C6C[C@@H](C)O[C@@H](C)C6)[nH]5)ccc4n32)s1 (single isomer, unassigned) [Compound 108] | 4 pM | – | – | 2.8 pM | – | – | 0.0033 nM | 0.007 nM | – | 0.016 nM | – | – | – |
| CCCOCc1ncc(C2Oc3cc(-c4cnc([C@@H]5CCCN5C(=O)[C@@H](NC(=O)OC)C(C)C)[nH]4)cc(F)c3-c3cc4cc(-c5cnc([C@@H]6CCCN6C(=O)[C@@H](NC(=O)OC)C(C)C)[nH]5)ccc4n32)s1 (single isomer, unassigned) [Compound 492] | – | – | – | – | – | 2.9 pM | 0.03 nM | 0.146 nM | 2.8 pM | 0.535 nM | – | – | – |
| CCc1ncc(C2Oc3cc(-c4cnc([C@@H]5CCCN5C(=O)[C@@H](NC(=O)OC)C(C)C)[nH]4)cc(F)c3-c3cc4cc(-c5cnc([C@@H]6CCCN6C(=O)C(NC(=O)OC)C6CCOC(C)(C)C6)[nH]5)ccc4n32)s1 (single isomer, unassigned) [Compound 40] | 3 pM | – | – | – | 0.03 nM | – | 0.0039 nM | 0.006 nM | 3.5 pM | – | – | – | – |
| COC(=O)NC(C(=O)N1CCC[C@H]1c1ncc(-c2ccc3c(c2)cc2n3C(c3cnc(C4CC4)s3)Oc3cc(-c4cnc([C@@H]5CCCN5C(=O)[C@@H](NC(=O)OC)C(C)C)[nH]4)cc(F)c3-2)[nH]1)C1CCOC(C)(C)C1 (single isomer, unassigned) [Compound 309] | – | – | – | – | – | 6 pM | 0.0218 nM | 0.003 nM | 1.8 pM | 0.047 nM | – | – | – |
| COC(=O)NC(C(=O)N1[C@@H]2C[C@@H]2C[C@H]1c1ncc(-c2ccc3c(c2)cc2n3C(c3cnc(CC(C)C)s3)Oc3cc(-c4cnc([C@@H]5CCCN5C(=O)[C@@H](NC(=O)OC)C(C)C)[nH]4)cc(F)c3-2)[nH]1)C1CCOC(C)(C)C1 (single isomer, unassigned) [Compound 438] | – | – | – | – | – | 3.7 pM | – | – | 3.6 pM | – | 0.004 nM | 0.006 nM | 0.03 nM |
| COC(=O)N[C@H](C(=O)N1CCC[C@H]1c1ncc(-c2cc(F)c3c(c2)OC(c2cnc(C4CC4C)s2)n2c-3cc3cc(-c4cnc([C@@H]5CCCN5C(=O)[C@@H](NC(=O)OC)C(C)C)[nH]4)ccc32)[nH]1)C(C)C (mixture of isomers) [Compound 491] | 2.6 pM | 0.01 nM | 0.013 nM | 2.9 pM | 0.3 nM | – | – | – | – | – | – | – | – |
| COC(=O)N[C@H](C(=O)N1CCC[C@H]1c1ncc(-c2cc(F)c3c(c2)OC(c2cnns2)n2c-3cc3cc(-c4cnc([C@@H]5CCCN5C(=O)[C@@H](NC(=O)OC)C(C)C)[nH]4)ccc32)[nH]1)C(C)C (single isomer, unassigned) [Compound 3] | 2 pM | – | – | 1.5 pM | 1.05 nM | – | 0.048 nM | 0.14 nM | – | – | – | – | – |
| COC(=O)N[C@H](C(=O)N1CCC[C@H]1c1ncc(-c2cc(C)c3c(c2)OC(c2cnc(C4CC4)s2)n2c-3cc3cc(-c4cnc([C@@H]5C[C@H]6C[C@H]6N5C(=O)[C@@H](NC(=O)OC)C(C)C)[nH]4)ccc32)[nH]1)C(C)C (single isomer, unassigned) [Compound 203] | 3 pM | 0.0166 nM | 0.007 nM | 4.47 pM | 0.654 nM | – | – | – | – | – | – | – | – |
| CCc1ncc(C2Oc3cc(-c4cnc([C@@H]5CCCN5C(=O)[C@@H](NC(=O)OC)C(C)C)[nH]4)cc(F)c3-c3cc4cc(-c5cnc([C@@H]6C[C@H]7C[C@H]7N6C(=O)C(NC(=O)OC)C6CCOC(C)(C)C6)[nH]5)ccc4n32)s1 (single isomer, unassigned) [Compound 95] | – | – | – | – | – | 5 pM | 0.0369 nM | 0.085 nM | 2.9 pM | 0.328 nM | – | – | – |
| COC(=O)NC(C(=O)N1CCC[C@H]1c1ncc(-c2ccc3c(c2)cc2n3C(c3cnc(C4CCC4)s3)Oc3cc(-c4cnc([C@@H]5CCCN5C(=O)[C@@H](NC(=O)OC)C(C)C)[nH]4)cc(C)c3-2)[nH]1)C1CCOC(C)(C)C1 (single isomer, unassigned) [Compound 221] | 8 pM | 0.06 nM | 0.006 nM | 7 pM | 0.39 nM | – | – | – | – | – | – | – | – |
| COC(=O)NC(C(=O)N1CCC[C@H]1c1ncc(-c2ccc3c(c2)cc2n3C(c3ncc(C4CC4)s3)Oc3cc(-c4cnc([C@@H]5CCCN5C(=O)[C@@H](NC(=O)OC)C(C)C)[nH]4)cc(F)c3-2)[nH]1)C1C[C@@H](C)O[C@@H](C)C1 (single isomer, unassigned) [Compound 51] | 3 pM | 0.0223 nM | 0.025 nM | 2.2 pM | 0.152 nM | – | – | – | – | – | – | – | – |
